What was measured:
Assay in all cases: relative viability (nuclei count vs DMSO), 5 days (fraction); higher = more cells survive
[1] = system: NCI-H358
Method in brief: (§1)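 Values are medians from duplicate plates. Each reflects relative viability, defined as the nuclei count of treated wells over that of vehicle wells. Lung cancer cell lines in 1536-well plates were pin-tool dosed one day after seeding with one drug alone or with a fixed anchor-drug dose plus five library-drug doses (not always all listed) in √10 steps, then fixed, stained and imaged at 4× after 5 days.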

[2] = system: COR-L23
Method in brief: as §1

[3] = system: NCI-H2342
Method in brief: as §1

[4] = system: NCI-H1734
Method in brief: as §1

[5] = system: SK-LU-1
Method in brief: as §1

[6] = system: BEN
Method in brief: as §1

[7] = system: NCI-H441
Method in brief: as §1

[8] = system: NCI-H1437
Method in brief: as §1

[9] = system: NCI-H1651
Method in brief: as §1

[10] = system: HCC-366
Method in brief: as §1

[11] = system: NCI-H460
Method in brief: as §1

[12] = system: NCI-H1563
Method in brief: as §1

[13] = system: NCI-H838
Method in brief: as §1

[14] = system: LOU-NH91
Method in brief: as §1

[15] = system: NCI-H1793
Method in brief: as §1

[16] = system: NCI-H2085
Method in brief: as §1

[17] = system: NCI-H1355
Method in brief: as §1

[18] = system: NCI-H1650
Method in brief: as §1

[19] = system: NCI-H2023
Method in brief: as §1

[20] = system: NCI-H1975
Method in brief: as §1

[21] = system: CAL-12T
Method in brief: as §1

[22] = system: LU99A
Method in brief: as §1

COc1nc(C)cnc1NS(=O)(=O)c1cccnc1-c1ccc(-c2nnco2)cc1 [Zibotentan] + N=C(N)NC(=N)NCCc1ccccc1 [Phenformin] (partner 250 µM)
relative viability ([1]; first compound 0.08 µM): 0.288
relative viability ([1]; first compound 0.253 µM): 0.134
relative viability ([1]; first compound 0.8 µM): 0.328
relative viability ([1]; first compound 2.53 µM): 0.345
relative viability ([2]; first compound 0.08 µM): 0.445
relative viability ([2]; first compound 0.253 µM): 0.376
relative viability ([2]; first compound 0.8 µM): 0.506
relative viability ([2]; first compound 2.53 µM): 0.416
relative viability ([3]; first compound 0.08 µM): 0.782
relative viability ([3]; first compound 0.253 µM): 0.595
relative viability ([3]; first compound 0.8 µM): 0.603
relative viability ([3]; first compound 2.53 µM): 0.559
relative viability ([4]; first compound 0.08 µM): 0.361
relative viability ([4]; first compound 0.253 µM): 0.396
relative viability ([4]; first compound 0.8 µM): 0.381
relative viability ([4]; first compound 2.53 µM): 0.492
relative viability ([5]; first compound 0.08 µM): 0.53
relative viability ([5]; first compound 0.253 µM): 0.463
relative viability ([5]; first compound 0.8 µM): 0.501
relative viability ([5]; first compound 2.53 µM): 0.503
relative viability ([6]; first compound 0.08 µM): 0.278
relative viability ([6]; first compound 0.253 µM): 0.261
relative viability ([6]; first compound 0.8 µM): 0.241
relative viability ([6]; first compound 2.53 µM): 0.264
relative viability ([7]; first compound 0.08 µM): 1.07
relative viability ([7]; first compound 0.253 µM): 0.665
relative viability ([7]; first compound 0.8 µM): 0.926
relative viability ([7]; first compound 2.53 µM): 0.895
relative viability ([8]; first compound 0.08 µM): 0.308
relative viability ([8]; first compound 0.253 µM): 0.297
relative viability ([8]; first compound 0.8 µM): 0.297
relative viability ([8]; first compound 2.53 µM): 0.347
relative viability ([9]; first compound 0.08 µM): 0.38
relative viability ([9]; first compound 0.253 µM): 0.264
relative viability ([9]; first compound 0.8 µM): 0.294
relative viability ([9]; first compound 2.53 µM): 0.339
relative viability ([10]; first compound 0.08 µM): 0.692
relative viability ([10]; first compound 0.253 µM): 0.62
relative viability ([10]; first compound 0.8 µM): 0.577
relative viability ([10]; first compound 2.53 µM): 0.603
relative viability ([11]; first compound 0.08 µM): 0.56
relative viability ([11]; first compound 0.253 µM): 0.147
relative viability ([11]; first compound 0.8 µM): 0.496
relative viability ([11]; first compound 2.53 µM): 0.532
relative viability ([12]; first compound 0.08 µM): 0.67
relative viability ([12]; first compound 0.8 µM): 0.66
relative viability ([12]; first compound 2.53 µM): 0.643
relative viability ([13]; first compound 0.08 µM): 0.586
relative viability ([13]; first compound 0.253 µM): 0.586
relative viability ([13]; first compound 0.8 µM): 0.55
relative viability ([13]; first compound 2.53 µM): 0.567
relative viability ([14]; first compound 0.08 µM): 0.712
relative viability ([14]; first compound 0.253 µM): 0.683
relative viability ([14]; first compound 0.8 µM): 0.798
relative viability ([14]; first compound 2.53 µM): 0.819
relative viability ([15]; first compound 0.08 µM): 0.404
relative viability ([15]; first compound 0.253 µM): 0.431
relative viability ([15]; first compound 0.8 µM): 0.31
relative viability ([15]; first compound 2.53 µM): 0.406
relative viability ([16]; first compound 0.08 µM): 0.73
relative viability ([16]; first compound 0.253 µM): 0.699
relative viability ([16]; first compound 0.8 µM): 0.803
relative viability ([16]; first compound 2.53 µM): 0.814
relative viability ([17]; first compound 0.08 µM): 0.465
relative viability ([17]; first compound 0.253 µM): 0.414
relative viability ([17]; first compound 0.8 µM): 0.449
relative viability ([17]; first compound 2.53 µM): 0.491
relative viability ([18]; first compound 0.08 µM): 0.454
relative viability ([18]; first compound 0.8 µM): 0.516
relative viability ([18]; first compound 2.53 µM): 0.428
relative viability ([19]; first compound 0.08 µM): 0.407
relative viability ([19]; first compound 0.253 µM): 0.321
relative viability ([19]; first compound 0.8 µM): 0.416
relative viability ([19]; first compound 2.53 µM): 0.451
relative viability ([20]; first compound 0.08 µM): 0.428
relative viability ([20]; first compound 0.253 µM): 0.398
relative viability ([20]; first compound 0.8 µM): 0.419
relative viability ([20]; first compound 2.53 µM): 0.413
relative viability ([21]; first compound 0.08 µM): 0.602
relative viability ([21]; first compound 0.253 µM): 0.482
relative viability ([21]; first compound 0.8 µM): 0.554
relative viability ([21]; first compound 2.53 µM): 0.609
relative viability ([22]; first compound 0.08 µM): 0.922
relative viability ([22]; first compound 0.253 µM): 0.853
relative viability ([22]; first compound 0.8 µM): 0.795
relative viability ([22]; first compound 2.53 µM): 0.897

COc1nc(C)cnc1NS(=O)(=O)c1cccnc1-c1ccc(-c2nnco2)cc1 [Zibotentan] + Nc1nc2[nH]cc(CCc3ccc(C(=O)N[C@@H](CCC(=O)O)C(=O)O)cc3)c2c(=O)[nH]1 [Pemetrexed] (partner 0.2 µM)
relative viability ([1]; first compound 0.08 µM): 0.189
relative viability ([1]; first compound 0.253 µM): 0.141
relative viability ([1]; first compound 2.53 µM): 0.184
relative viability ([2]; first compound 0.08 µM): 0.214
relative viability ([2]; first compound 0.253 µM): 0.185
relative viability ([2]; first compound 0.8 µM): 0.207
relative viability ([2]; first compound 2.53 µM): 0.204
relative viability ([3]; first compound 0.08 µM): 0.769
relative viability ([3]; first compound 0.253 µM): 0.729
relative viability ([3]; first compound 0.8 µM): 0.761
relative viability ([3]; first compound 2.53 µM): 0.797
relative viability ([4]; first compound 0.08 µM): 0.404
relative viability ([4]; first compound 0.253 µM): 0.423
relative viability ([4]; first compound 0.8 µM): 0.396
relative viability ([4]; first compound 2.53 µM): 0.44
relative viability ([5]; first compound 0.08 µM): 0.95
relative viability ([5]; first compound 0.253 µM): 0.705
relative viability ([5]; first compound 0.8 µM): 1.01
relative viability ([5]; first compound 2.53 µM): 0.99
relative viability ([6]; first compound 0.08 µM): 0.781
relative viability ([6]; first compound 0.253 µM): 0.707
relative viability ([6]; first compound 0.8 µM): 0.774
relative viability ([6]; first compound 2.53 µM): 0.722
relative viability ([7]; first compound 0.08 µM): 0.284
relative viability ([7]; first compound 0.253 µM): 0.298
relative viability ([7]; first compound 0.8 µM): 0.262
relative viability ([7]; first compound 2.53 µM): 0.249
relative viability ([8]; first compound 0.08 µM): 0.35
relative viability ([8]; first compound 0.253 µM): 0.306
relative viability ([8]; first compound 0.8 µM): 0.281
relative viability ([8]; first compound 2.53 µM): 0.32
relative viability ([9]; first compound 0.08 µM): 0.594
relative viability ([9]; first compound 0.253 µM): 0.581
relative viability ([9]; first compound 0.8 µM): 0.578
relative viability ([9]; first compound 2.53 µM): 0.539
relative viability ([10]; first compound 0.08 µM): 0.163
relative viability ([10]; first compound 0.253 µM): 0.179
relative viability ([10]; first compound 0.8 µM): 0.0897
relative viability ([10]; first compound 2.53 µM): 0.147
relative viability ([11]; first compound 0.08 µM): 0.0594
relative viability ([11]; first compound 0.253 µM): 0.0676
relative viability ([11]; first compound 0.8 µM): 0.0545
relative viability ([11]; first compound 2.53 µM): 0.0682
relative viability ([12]; first compound 0.08 µM): 0.827
relative viability ([12]; first compound 0.253 µM): 0.703
relative viability ([12]; first compound 0.8 µM): 0.757
relative viability ([12]; first compound 2.53 µM): 0.66
relative viability ([13]; first compound 0.08 µM): 0.249
relative viability ([13]; first compound 0.253 µM): 0.234
relative viability ([13]; first compound 0.8 µM): 0.23
relative viability ([13]; first compound 2.53 µM): 0.252
relative viability ([14]; first compound 0.08 µM): 0.366
relative viability ([14]; first compound 0.253 µM): 0.357
relative viability ([14]; first compound 0.8 µM): 0.369
relative viability ([14]; first compound 2.53 µM): 0.408
relative viability ([15]; first compound 0.08 µM): 0.942
relative viability ([15]; first compound 0.253 µM): 0.785
relative viability ([15]; first compound 0.8 µM): 0.799
relative viability ([15]; first compound 2.53 µM): 1.08
relative viability ([16]; first compound 0.08 µM): 0.884
relative viability ([16]; first compound 0.253 µM): 0.852
relative viability ([16]; first compound 0.8 µM): 0.892
relative viability ([16]; first compound 2.53 µM): 0.918
relative viability ([17]; first compound 0.08 µM): 1.04
relative viability ([17]; first compound 0.253 µM): 1.05
relative viability ([17]; first compound 0.8 µM): 1.03
relative viability ([17]; first compound 2.53 µM): 1.07
relative viability ([18]; first compound 0.08 µM): 0.364
relative viability ([18]; first compound 0.8 µM): 0.387
relative viability ([18]; first compound 2.53 µM): 0.402
relative viability ([19]; first compound 0.08 µM): 0.243
relative viability ([19]; first compound 0.8 µM): 0.225
relative viability ([19]; first compound 2.53 µM): 0.251
relative viability ([20]; first compound 0.08 µM): 0.308
relative viability ([20]; first compound 0.253 µM): 0.281
relative viability ([20]; first compound 0.8 µM): 0.289
relative viability ([20]; first compound 2.53 µM): 0.299
relative viability ([21]; first compound 0.08 µM): 1.28
relative viability ([21]; first compound 0.253 µM): 1.06
relative viability ([21]; first compound 0.8 µM): 1.23
relative viability ([21]; first compound 2.53 µM): 1.16
relative viability ([22]; first compound 0.08 µM): 0.169
relative viability ([22]; first compound 0.253 µM): 0.177
relative viability ([22]; first compound 0.8 µM): 0.14
relative viability ([22]; first compound 2.53 µM): 0.198
